Results on eleven compounds are retold here after ChEMBL document CHEMBL1201862, “PubChem BioAssay data set” (2004).

SMILES strings stand for the structures.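 Test compounds were applied to cells in 96-well plates for 48 hours at 5 doses. Here, GI50 denotes the concentration required for 50% inhibition of growth.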 Active and inactive are the calls of the source. Rule as the data show it: active = GI50 up to about 1.1 µM and inactive = higher.

Among the test systems are COLO 205; SK-OV-3; A549; HT-29; SK-MEL-2; SK-MEL-28; HCT-15; HCT-116; IGROV-1; 786-0; SF-539; RXF 393; SN12C; OVCAR-4; SF-295; HL-60; CAKI-1; EKVX.
Test in all cases: DTP human tumour cell line panel, 48 h

For orientation: GI50 means the concentration giving 50% growth inhibition. In the case of `COc1cccc2c1C1(O)C2CCCC12OCCCO2` (stereo not drawn), the GI50 in the experiment with COLO 205, with SK-OV-3, with A549, in the experiment with HT-29, with SK-MEL-2 and with SK-MEL-28 was > 100 µM (inactive) throughout. Besides, the GI50 in the experiment on HCT-15 was over 100 µM; in the experiment on HCT-116, > 100 µM (inactive); in the experiment with IGROV-1, > 100 µM (inactive); in the experiment on 786-0, > 100 µM (inactive); in the experiment on SF-539, > 100 µM (inactive); in the experiment on RXF 393, > 100 µM (inactive). Further, the GI50 in the experiment on SN12C, in the experiment with OVCAR-4, with SF-295, with HL-60 and in the experiment with CAKI-1 was > 100 µM (inactive) each time.

As for `O=c1nc(-c2ccccc2)c2c3c(cccn13)CCC2`, the GI50 in the experiment on SK-OV-3 is > 100 µM (inactive); in the experiment with A549, > 100 µM (inactive); in the experiment with HT-29, > 100 µM (inactive); with SK-MEL-2 it was > 100 µM (inactive); in the experiment on SK-MEL-28, > 100 µM (inactive); in the experiment with HCT-15, over 100 µM. For the same compound, the GI50 in the experiment with HCT-116, with IGROV-1, in the experiment with 786-0, in the experiment with SF-539, in the experiment on RXF 393 and in the experiment with SN12C was > 100 µM (inactive) throughout. Moreover, the GI50 in the experiment with OVCAR-4, with SF-295, in the experiment on HL-60 and in the experiment with CAKI-1 was > 100 µM (inactive) throughout.

On to `Cc1cccc(/C=N/N=C(\N)NO)n1`, for which the GI50 in the experiment with COLO 205 is > 100 µM (inactive); in the experiment on EKVX it was 37.3 µM (inactive); in the experiment with SK-OV-3 it was 19.9 µM (inactive); with A549, 13.4 µM (inactive); in the experiment with HT-29, 48.4 µM (inactive); in the experiment with SK-MEL-2, 50 µM (inactive). Further, the GI50 with SK-MEL-28 is > 100 µM (inactive); with HCT-15, over 10 µM; in the experiment with HCT-116, > 100 µM (inactive); in the experiment with IGROV-1 it was 7.26 µM (inactive); with 786-0 it was 36.8 µM (inactive); in the experiment on SF-539 it was 26.7 µM (inactive). Besides, the GI50 was > 100 µM (inactive) in the experiment with RXF 393; > 100 µM (inactive) in the experiment with SN12C; 28.2 µM (inactive) in the experiment with OVCAR-4; 22.8 µM (inactive) in the experiment with SF-295; 32.4 µM (inactive) in the experiment on HL-60; 20.8 µM (inactive) in the experiment with CAKI-1.

Turning to `COC(=O)C1Cc2c(n(C)c3ccccc23)C(CCC(=O)O)N1Cc1ccccc1` (stereo not drawn), the GI50 was 27 µM (inactive) in the experiment with COLO 205; 46.1 µM (inactive) with EKVX; 36.5 µM (inactive) in the experiment with SK-OV-3; 31 µM (inactive) with A549; 36.1 µM (inactive) in the experiment on HT-29; > 100 µM (inactive) with SK-MEL-2. The GI50 is 28.4 µM (inactive) in the experiment with SK-MEL-28; 27.7 µM with HCT-15; 21.2 µM (inactive) in the experiment on HCT-116; 40.6 µM (inactive) in the experiment on IGROV-1; > 100 µM (inactive) with 786-0; 22.4 µM (inactive) in the experiment with SF-539. Also, the GI50 with RXF 393 is 28.6 µM (inactive); in the experiment on SN12C, 38.5 µM (inactive); in the experiment on OVCAR-4 it was 33.7 µM (inactive); in the experiment on SF-295 it was 31 µM (inactive); in the experiment on HL-60, 34.4 µM (inactive); in the experiment on CAKI-1 it was 37.2 µM (inactive).

`COc1ccc(C(O)C(c2ccc(OCc3ccccc3)cc2)c2ccc(OCc3ccccc3)cc2)cc1` (stereo not drawn): the GI50 in the experiment with COLO 205, with EKVX, in the experiment with SK-OV-3, with A549, in the experiment on HT-29 and in the experiment with SK-MEL-2 was > 100 µM (inactive) each time. The GI50 in the experiment on SK-MEL-28 was > 100 µM (inactive); in the experiment with HCT-15, over 100 µM; in the experiment with HCT-116 it was > 100 µM (inactive); with IGROV-1, > 100 µM (inactive); with 786-0, > 100 µM (inactive); in the experiment on SF-539, > 100 µM (inactive). Moreover, the GI50 with RXF 393, in the experiment on SN12C, with OVCAR-4, in the experiment with SF-295, with HL-60 and with CAKI-1 was > 100 µM (inactive) in each case.

`O=C(CCCC(=O)Nc1ccc(Cl)cc1Cl)CC(=O)c1ccc2ccccc2c1`: the GI50 in the experiment with COLO 205, in the experiment on EKVX, with SK-OV-3, in the experiment on A549, in the experiment with HT-29 and with SK-MEL-2 was > 100 µM (inactive) throughout. Also, the GI50 with SK-MEL-28 is > 100 µM (inactive); with HCT-15, over 100 µM; in the experiment with HCT-116, > 100 µM (inactive); in the experiment with IGROV-1 it was > 100 µM (inactive); in the experiment with 786-0, > 100 µM (inactive); with SF-539 it was > 100 µM (inactive). Further, the GI50 with RXF 393 is 10.8 µM (inactive); with SN12C, > 100 µM (inactive); with OVCAR-4, > 100 µM (inactive); with SF-295, > 100 µM (inactive); in the experiment on HL-60, > 100 µM (inactive); in the experiment on CAKI-1 it was > 100 µM (inactive).

On to `Oc1ncnc2c1nnn2CCCn1nnc2c(O)ncnc21`, for which the GI50 with COLO 205, in the experiment on EKVX, in the experiment with SK-OV-3, in the experiment with A549, in the experiment on HT-29 and with SK-MEL-2 was > 100 µM (inactive) each time. Besides, the GI50 in the experiment with SK-MEL-28 is > 100 µM (inactive); in the experiment on HCT-15, over 100 µM; in the experiment on HCT-116, > 100 µM (inactive); in the experiment with IGROV-1, > 100 µM (inactive); in the experiment with 786-0, > 100 µM (inactive); in the experiment on SF-539 it was > 100 µM (inactive). In addition, the GI50 in the experiment on RXF 393, with SN12C, in the experiment with OVCAR-4, in the experiment on SF-295, in the experiment on HL-60 and with CAKI-1 was > 100 µM (inactive) each time.

In the case of `O=C(CCCCCCCCCCc1ccccc1)C1=C(O)CCCC1=O`, the GI50 in the experiment on COLO 205 was 17.6 µM (inactive); in the experiment with EKVX, 41.3 µM (inactive); in the experiment with SK-OV-3 it was 35.6 µM (inactive); in the experiment with A549, 18.4 µM (inactive); in the experiment with HT-29, 26.6 µM (inactive); with SK-MEL-2, 23 µM (inactive). For the same compound, the GI50 was 40.4 µM (inactive) in the experiment on SK-MEL-28; 22.9 µM (inactive) in the experiment with HCT-116; 35.4 µM (inactive) in the experiment with IGROV-1; 31.7 µM (inactive) in the experiment on 786-0; 41.9 µM (inactive) in the experiment on SF-539; 25.1 µM (inactive) in the experiment with RXF 393. Besides, the GI50 in the experiment on SN12C is 35.2 µM (inactive); with OVCAR-4, 32.7 µM (inactive); in the experiment with SF-295 it was 22.8 µM (inactive); with HL-60, 14.3 µM (inactive); in the experiment with CAKI-1, 7.85 µM (inactive).

`O=C(CC1(O)C(=O)Nc2ccccc21)c1ccc(O)cc1` (stereo not drawn): the GI50 with COLO 205, in the experiment on EKVX, in the experiment on SK-OV-3, in the experiment with A549, in the experiment on HT-29 and in the experiment with SK-MEL-2 was > 100 µM (inactive) throughout. Further, the GI50 in the experiment with SK-MEL-28 is > 100 µM (inactive); in the experiment with HCT-15, over 100 µM; in the experiment on HCT-116, > 100 µM (inactive); in the experiment on IGROV-1 it was > 100 µM (inactive); in the experiment on 786-0, > 100 µM (inactive); in the experiment with SF-539, > 100 µM (inactive). Further, the GI50 in the experiment with RXF 393, in the experiment on SN12C, with OVCAR-4, in the experiment with SF-295, in the experiment on HL-60 and in the experiment on CAKI-1 was > 100 µM (inactive) throughout.

For the compound `COc1ccc(Cc2cc3c(cc2OCC(=O)O)OCO3)cc1`, the GI50 in the experiment on COLO 205, with EKVX, with SK-OV-3, in the experiment with A549, with HT-29 and in the experiment on SK-MEL-2 was > 100 µM (inactive) throughout. Also, the GI50 in the experiment on SK-MEL-28, with HCT-116, with IGROV-1, with 786-0, in the experiment on SF-539 and in the experiment on RXF 393 was > 100 µM (inactive) throughout. Also, the GI50 in the experiment with SN12C, in the experiment with OVCAR-4, with SF-295, with HL-60 and with CAKI-1 was > 100 µM (inactive) in each case.

As to `CCCCSC(=CC(=O)c1cccc(C(=O)C=C(SCCCC)SCCCC)n1)SCCCC`, the GI50 in the experiment with COLO 205, in the experiment on EKVX, with SK-OV-3, with A549, with HT-29 and in the experiment with SK-MEL-2 was > 100 µM (inactive) throughout. Besides, the GI50 was > 100 µM (inactive) in the experiment on SK-MEL-28; over 100 µM in the experiment on HCT-15; > 100 µM (inactive) in the experiment on HCT-116; > 100 µM (inactive) with IGROV-1; > 100 µM (inactive) in the experiment with 786-0; > 100 µM (inactive) in the experiment on SF-539. Also, the GI50 in the experiment on RXF 393, with SN12C, in the experiment with OVCAR-4, in the experiment on SF-295, in the experiment on HL-60 and with CAKI-1 was > 100 µM (inactive) in each case.
